Patent US12590062B2, “PD-1/PD-L1 inhibitors” (Gilead Sciences, Inc., priority 2017, dated 2026)
Blank lines part the entries; values can stand above or below the molecule they belong to.

How the values were obtained:
PD-1/PD-L1 = PD-1/PD-L1 (Homo sapiens, UniProt Q9NZQ7); experiment: PD-1/PD-L1 biochemical protein-protein interaction assay (ALPHA); assay type: binding; details: 0.3 nM His tagged PD-L1, 2.5 nM biotinylated Fc-PD-1, 60 minutes at 25° C., read-out: IC50 PD-L1-PD-1 Alpha IC50-mono PD-L1-fcP-D1
Summary of the method: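 IC50 values derive from four-parameter fits of ALPHA signal decrease. Assay: 0.3 nM His-tagged PD-L1 with 2.5 nM biotinylated Fc-PD-1, Hepes pH 7.4 with 0.005% Tween 20 and 0.01% BSA, 60 min at 25° C, then anti-His acceptor and streptavidin donor beads.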

PD-L1 = molecular target: T1, PD-L1 (Homo sapiens, UniProt Q9NZQ7); experiment: PD-L1/PD-L1 dimerization biochemical protein-protein interaction assay (ALPHA); assay type: binding; details: compound-induced PD-L1 dimerization, head prints '1 nM' (0.5 nM His-tagged PD-L1 and 0.5 nM FLAG-tagged PD-L1), read-out: AC50 PDL1 Dimer Alpha 1 nM
T1 construct: determine if they can specifically dimerize the extracellular domains of PD-L1
Summary of the method: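 After 2 h at 25 °C with compound, His- and FLAG-tagged PD-L1 ECDs (each 0.5 nM final; 25 mM Hepes pH 7.4, 150 mM NaCl) were detected by sequential anti-His acceptor and anti-FLAG donor bead incubations. Dose-response curves fitted to four-parameter equation for AC50.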

PD-1/PD-L1 interaction = molecular target: T2, PD-1/PD-L1 interaction (Homo sapiens, UniProt Q9NZQ7); experiment: PD-1/PD-L1 NFAT reporter co-culture assay; assay type: cell-based; details: Jurkat PD-1 NFAT-luciferase cells co-cultured with aAPC-PD-L1 CHO cells, 6 hrs at 37° C.; read-out: EC50 NFAT Luciferase
T2 construct: expressed in transfected cells; host or cells: CHO cells (aAPC-PD-L1) co-cultured with Jurkat cells overexpressing PD-1 and an NFAT-luciferase reporter
Summary of the method: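 Luminescence (ONE-Glo) after 6 h, 37 °C co-culture reports NFAT-luciferase in PD-1 Jurkat cells, which PD-1/PD-L1 engagement suppresses. Partner cells: CHO expressing anti-CD3 and PD-L1. EC50 from four-parameter dose-response fit.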

T2 sequence (Q9NZQ7 19-290): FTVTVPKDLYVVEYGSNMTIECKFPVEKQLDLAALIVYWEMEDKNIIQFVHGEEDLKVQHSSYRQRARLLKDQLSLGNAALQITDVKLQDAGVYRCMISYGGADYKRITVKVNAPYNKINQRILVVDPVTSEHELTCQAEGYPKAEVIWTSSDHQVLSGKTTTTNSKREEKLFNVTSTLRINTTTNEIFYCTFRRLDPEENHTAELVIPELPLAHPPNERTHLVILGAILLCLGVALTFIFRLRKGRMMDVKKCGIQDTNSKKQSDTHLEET
T1 sequence (Q9NZQ7 19-238 limits assumed): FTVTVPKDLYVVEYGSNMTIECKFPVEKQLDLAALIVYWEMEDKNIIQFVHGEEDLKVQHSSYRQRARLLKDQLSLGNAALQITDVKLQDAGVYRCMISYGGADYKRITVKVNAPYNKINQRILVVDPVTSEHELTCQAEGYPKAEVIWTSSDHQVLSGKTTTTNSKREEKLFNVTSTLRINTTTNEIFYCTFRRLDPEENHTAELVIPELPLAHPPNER
T1 sequence (Q9NZQ7 19-238 limits assumed): as above
Sequence of PD-1/PD-L1 (Q9NZQ7 19-238 limits assumed): as above

Compound: COc1nc(-c2cccc(-c3cccc4c3CC[C@@H]4Oc3nc(OCc4cncc(C#N)c4)c(CN[C@@](C)(CO)C(=O)O)cc3Br)c2Cl)ccc1CNC[C@@H]1CCC(=O)N1 [Example 747]
IC50 (PD-1/PD-L1): 0.064 nM | AC50 (PD-L1): 5.36 nM | EC50 (PD-1/PD-L1 interaction): 10 nM

Compound: COc1nc(-c2cccc(-c3cccc4c3CC[C@@H]4Oc3nc(OCc4cncc(C#N)c4)c(CN[C@@](C)(CO)C(=O)O)cc3Cl)c2C)ccc1C1=NCCN1 [Example 749]
IC50 (PD-1/PD-L1): 0.064 nM | AC50 (PD-L1): 16.8 nM | EC50 (PD-1/PD-L1 interaction): 77 nM

Compound: COc1nc(-c2cccc(-c3cccc4c3CC[C@@H]4Oc3ccc(CN[C@@](C)(CO)C(=O)O)c(OCc4cncc(C#N)c4)n3)c2C)ccc1C1=NCCN1 [Example 750]
IC50 (PD-1/PD-L1): 0.064 nM | AC50 (PD-L1): 72.1 nM | EC50 (PD-1/PD-L1 interaction): 222 nM

Compound: N#Cc1cncc(COc2nc(O[C@H]3CCc4c(-c5cccc6c5CC[C@@H]6Oc5nc(OCc6cncc(C#N)c6)c(CNCCO)cc5Br)cccc43)c(Br)cc2CNCCO)c1 [Example 751]
IC50 (PD-1/PD-L1): 4.51 nM | AC50 (PD-L1): 182 nM | EC50 (PD-1/PD-L1 interaction): 355 nM

Compound: COc1nc(-c2cccc(-c3cccc4c3CC[C@@H]4Oc3nc(OC)c(CN4CC(C(=O)O)C4)cc3Cl)c2Cl)ccc1CNC[C@@H]1CCC(=O)N1 [Example 757]
IC50 (PD-1/PD-L1): 0.064 nM | AC50 (PD-L1): 17.6 nM | EC50 (PD-1/PD-L1 interaction): 15 nM

Compound: COc1nc(-c2cccc(-c3cccc4c3CC[C@@H]4Oc3nc(OC)c(CN4CCC[C@@H](C(=O)O)C4)cc3Cl)c2Cl)ccc1CNC[C@@H]1CCC(=O)N1 [Example 758]
IC50 (PD-1/PD-L1): 0.064 nM | AC50 (PD-L1): 36.7 nM | EC50 (PD-1/PD-L1 interaction): 29 nM

Compound: COc1nc(-c2cccc(-c3cccc4c3CC[C@@H]4Oc3nc(OC)c(CN4CCC[C@H](C(=O)O)C4)cc3Cl)c2Cl)ccc1CNC[C@@H]1CCC(=O)N1 [Example 759]
IC50 (PD-1/PD-L1): 0.064 nM | AC50 (PD-L1): 18.9 nM | EC50 (PD-1/PD-L1 interaction): 16 nM

Compound: COc1nc(-c2cccc(-c3cccc4c3CC[C@@H]4Oc3nc(OC)c(CN4C[C@H](C(=O)O)[C@@H](C(C)C)C4)cc3Cl)c2Cl)ccc1CNC[C@@H]1CCC(=O)N1 [Example 760]
IC50 (PD-1/PD-L1): 0.064 nM | AC50 (PD-L1): 44.2 nM | EC50 (PD-1/PD-L1 interaction): 63 nM

Compound: COc1nc(-c2cccc(-c3cccc4c3CC[C@@H]4Oc3nc(OC)c(CN4CCC(C)(C(=O)O)C4)cc3Cl)c2Cl)ccc1CNC[C@@H]1CCC(=O)N1 (stereo partly drawn) [Example 763]
IC50 (PD-1/PD-L1): 0.064 nM | AC50 (PD-L1): 11.3 nM | EC50 (PD-1/PD-L1 interaction): 10 nM

Results, then the molecule that gave them:

IC50 (PD-1/PD-L1): 0.312 nM | AC50 (PD-L1): 82.2 nM | EC50 (PD-1/PD-L1 interaction): 50 nM
Compound: COC(=O)[C@@](C)(CO)NCc1cc(Br)c(O[C@H]2CCc3c(-c4cccc(-c5ccc(CNC[C@@H]6CCC(=O)N6)c(OC)n5)c4Cl)cccc32)nc1OCc1cncc(C#N)c1 [Example 743]

IC50 (PD-1/PD-L1): 0.064 nM | AC50 (PD-L1): 9.53 nM | EC50 (PD-1/PD-L1 interaction): 44 nM
Compound: COc1nc(-c2cccc(-c3cccc4c3CC[C@@H]4Oc3nc(OCc4cncc(C#N)c4)c(CN[C@@](C)(CO)C(=O)O)cc3Br)c2Cl)ccc1C1=NCCN1 [Example 744]

IC50 (PD-1/PD-L1): 0.064 nM | AC50 (PD-L1): 19.2 nM | EC50 (PD-1/PD-L1 interaction): 113 nM
Compound: COc1nc(-c2cccc(-c3cccc4c3CC[C@@H]4Oc3nc(OCc4cncc(C#N)c4)c(CN[C@@](C)(CO)C(=O)O)cc3Cl)c2Cl)ccc1C1=NCCN1 [Example 745]

IC50 (PD-1/PD-L1): 0.064 nM | AC50 (PD-L1): 104 nM | EC50 (PD-1/PD-L1 interaction): 143 nM
Compound: COc1nc(-c2cccc(-c3cccc4c3CC[C@@H]4Oc3ccc(CN[C@@](C)(CO)C(=O)O)c(OCc4cncc(C#N)c4)n3)c2Cl)ccc1C1=NCCN1 [Example 746]

IC50 (PD-1/PD-L1): 0.064 nM | AC50 (PD-L1): 10.1 nM | EC50 (PD-1/PD-L1 interaction): 24 nM
Compound: COc1nc(-c2cccc(-c3cccc4c3CC[C@@H]4Oc3nc(OCc4cncc(C#N)c4)c(CN[C@@](C)(CO)C(=O)O)cc3Br)c2C)ccc1C1=NCCN1 [Example 748]

IC50 (PD-1/PD-L1): 0.779 nM | AC50 (PD-L1): 82.5 nM | EC50 (PD-1/PD-L1 interaction): 471 nM
Compound: N#Cc1cncc(COc2nc(O[C@H]3CCc4c(-c5cccc6c5CC[C@@H]6Oc5nc(OCc6cncc(C#N)c6)c(C6=NCCN6)cc5Br)cccc43)c(Br)cc2C2=NCCN2)c1 [Example 752]

IC50 (PD-1/PD-L1): 0.155 nM | AC50 (PD-L1): 39.2 nM | EC50 (PD-1/PD-L1 interaction): 139 nM
Compound: Cc1c(-c2ccc(OCCNC[C@@H](O)CC(=O)O)cc2)cccc1-c1cccc2c1CC[C@@H]2Oc1nc(OCc2cccc(C#N)c2)c(CNC[C@@H](O)CC(=O)O)cc1Br [Example 755]

IC50 (PD-1/PD-L1): 0.064 nM | AC50 (PD-L1): 13.2 nM | EC50 (PD-1/PD-L1 interaction): 10 nM
Compound: COc1nc(-c2cccc(-c3cccc4c3CC[C@@H]4Oc3nc(OC)c(CN4CCCC(C)(C(=O)O)C4)cc3Cl)c2Cl)ccc1CNC[C@@H]1CCC(=O)N1 (stereo partly drawn) [Example 761]

IC50 (PD-1/PD-L1): 0.064 nM | AC50 (PD-L1): 13.6 nM | EC50 (PD-1/PD-L1 interaction): 18 nM
Compound: COc1nc(-c2cccc(-c3cccc4c3CC[C@@H]4Oc3nc(OC)c(CN4CCCC(O)(C(=O)O)C4)cc3Cl)c2Cl)ccc1CNC[C@@H]1CCC(=O)N1 (stereo partly drawn) [Example 762]
